In patent publication US20080051454A1, “Compositions and methods for transient receptor potential vanilloid (TRPV) channel mediated treatments” (The Board of Trustees Operating Michigan State University, priority 2006, published 2008):

Assays:
[1] = test system: Wistar rats fed a normal-salt (NS) or high-salt (HS) diet for 10 days; experiment: MAP and HR responses to i.v. bolus NADA with or without antagonists in conscious rats; format: in vivo, rat; conditions: for prolonged depressor effect of NADA (decrease in MAP) after antagonist: NADA 4 mg/kg after CAPZ 3 mg/kg, CGRP8-37 infusion or SR141716A 3 mg/kg
Description: In brief: Wistar rats were fed a normal (NS, 0.4%) or high (HS, 4%) sodium diet for 10 days, then artery and vein were cannulated for measurement of mean arterial pressure (MAP) or for injection of drugs and collection of plasma.
Animal Preparation: Male Wistar rats (7 weeks old, Charles River Laboratory, Wilmington, Mass.) were housed in the animal facility for 1 week before the experiment. Rats were grouped randomly and pair-fed a NS (0.4% of Na^+ by weight) or HS (4% of Na^+ by weight) diet for 10 days. The rat chow was purchased from Harlan Teklad Diets (Madison, Wis.). Drinking water was available ad libitum throughout the experiment. All protocols were in accordance with the National Institutes of Health Guidelines for the Care and Use of Laboratory Animals.
Surgical Preparation Rats were anesthetized with ketamine and xylazine (80 and 4 mg/kg intraperitoneally, respectively) for cannulation or with urethane (1.5 g/kg intraperitoneally) for capsaicin administration. The left jugular vein, carotid and femoral artery were cannulated under anesthesia for injection of drugs or monitoring of mean arterial pressure (MAP) and heart rate (HR).
Three hours after surgery, baseline MAP and its response to the above-mentioned drugs were obtained with the rats fully awake and unrestrained [Wang et al., Am J Physiol 2004; 287:H1868-H[874]. NADA was injected in increasing doses (1, 4, and 10 mg/kg intravenous bolus) in 3 subgroups of rats (each group for each dose). To determine the role of TRPV1 and CB 1 receptor in NADA-induced hypotension, NADA (4 mg/kg) was injected 10 minutes or 20 minutes after intravenous injection of CAPZ (3 mg/kg) or SR141716A (3 mg/kg), respectively.
To examine the effect of CGRP8-37 on NADA-induced hypotension, CGRP8-37 was intravenously administered at the rate of 1 mg/kg/min for 2 minutes followed by injection at the rate of 0.5 mg/kg/min for 15 minutes. NADA (4 mg/kg) was injected 1 minute after CGRPs-37 administration. The effectiveness of the dose and time frame for CGRP8-37 injection was verified by blockade of the hypotensive response to capsaicin (30 μg/kg) (n=5).

[2] = test system: mesenteric arteries; experiment: NADA-induced CGRP release from isolated mesenteric arteries (radioimmunoassay); design: species or system rat; conditions: CAPZ 10 μM pretreatment, NADA 10 μM; NS or HS
Description: After an 1 h stabilization period, the arteries were transferred to another chamber containing 1 ml of Krebs's solution with the addition of 0.05% BSA and drugs including NADA (1 or 10 μM) or CAPZ (10 μM). The tissues were removed after 20 min incubation, and the solutions were collected and evaporated. […] At the end of the experiment, the tissues were blotted and weighted. […] The results are expressed as pg of milligram of tissues.
This antibody has 100% cross-reactivity with rat a-CGRP and 79% with β-CGRP. There is no cross-reactivity with rat amylin, calcitonin, somatostatin, or substance P. The assay was performed following the manufacturer's protocol.

[3] = test system: mesenteric arteries; experiment: MethA-induced CGRP release from isolated mesenteric arteries (radioimmunoassay); design: species or system rat; conditions: CAPZ 10 μM, MethA 10 μM; NS or HS
Description: The arteries were dissected free of fat and connective tissues.
The preparations were incubated in a Krebs' solution of the following compositions (in mM): NaCl 119, NaHCO3 25, KH2PO4 1.2, MgSO4 1.5, CaCl2 2.5, KCl 4.7, and D-glucose 11. The Krebs' solution was maintained at 37 °C and gassed with 95% O2 and 5% CO2. After 1 h stabilization period, the arteries were transferred to another chamber containing 1 ml of Krebs' solution with the addition of 0.05% BSA and drugs. […] The tissues were removed after 20 min incubation, and the solutions were collected. At the end of the experiment, the tissues were blotted and weighted.
This antibody has 100% cross-reactivity with rat α-CGRP and 79% with rat β-CGRP. There is no cross-reactivity with rat amylin, calcitonin, somatostatin, or substance P.

[4] = test system: WT hearts; experiment: Preconditioning (PC) protection against I/R in Langendorff hearts with receptor antagonists, wild type; design: species or system mouse
Description: (§1) Male TRPV1 gene knockout (TRPV1-/-) strain B6.129S[…][…]^tm1Jul and matching control wild type (WT) strain C57BL/6J mice were used (Jackson Laboratory, Bar Harbor, Me.). Mice were heparinized (500 U/kg i.p.) and anesthetized with pentobarbital sodium (50 mg/kg i.p.). […] The distal end of the catheter was connected to a […] Performance Analyzer via a pressure transducer. Coronary flow (CF) was continuously measured using an ultrasonic flow probe placed in the aortic perfusion line. Hearts were paced at 400 bpm except during ischemic PC and sustained global ischemia to avoid inducing excessive ventricular tachyarrhythmia during reperfusion, and pacing was reinitiated 2 minutes after reperfusion. Left ventricular developed pressure (LVDP, peak systolic minuses LVEDP) and LV peak positive […]) during isovolumic contraction were used as indices of LV systolic function; LVEDP and the peak negative […] used as indices of LV diastolic function. […] Non-preconditioned hearts were time-matched perfused with the same duration as that of preconditioned hearts. Group 1: Controls. As normal controls (nonischemic), WT and TRPV1-/- hearts were perfused for 130 minutes. For I/R controls, WT and TRPV1-/- hearts were first perfused with Krebs-Henseleit buffer for 55 min (time-matched perfusion of the equilibration period plus the PC period), and subsequently subjected to 30 minutes of no-flow normothermic global ischemia followed by 40-minutes of reperfusion. Group 2: PC. […] The hearts were subjected to 30 minutes of no-flow normothermic global ischemia followed by 40-minutes of reperfusion as that of I/R control groups. Group 3: PC plus capsazepine (CAPZ). […] Two additional concentrations of CAPZ, 10^-6M and 10^-8 M, were used in WT hearts. An additional drug control was added. After a 20-minute equilibration period, WT hearts were perfused with CAPZ (10^-7 M) for 10 minutes without PC, followed by perfusion with Krebs-Henseleit buffer for 25 minutes (time-matched perfusion of the PC period) and then subjected to I/R. Group 4: […] Two additional concentrations of CGRP8-37, 10^-5 M and 10^-7 M, were used in WT hearts. An additional drug control of CGRP8-37 was added as that of the CAPZ control group. Group 5: PC plus RP67580. To determine the role of endogenous SP during PC, hearts from WT and TRPV1-/-mice were perfused as that of CAPZ with RP67580 (10^-7 M), a selective neurokinin-1 (NK1) receptor antagonist. Two additional concentrations of RP67580, 10^-6 M and 10^-8 M, were used in WT hearts. An additional drug control of RP67580 was added as that of the CAPZ control group.

[5] = test system: TRPV1−/− hearts; experiment: Preconditioning (PC) protection against I/R in Langendorff hearts with receptor antagonists, TRPV1-null; design: species or system mouse; conditions: CAPZ 10^−7 M, CGRP8-37 10^−6 M, RP67580 10^−7 M
Description: as §1, with “Two additional concentrations of CGRP8-37, 10^-5 M and 10^-7 M, were used in WT hearts. An additional drug control of CGRP8-37 was added as that of the CAPZ control group. Group 5: PC plus RP67580. To determine the role of endogenous SP during PC, hearts from WT and TRPV1-/-mice were perfused as that of CAPZ with RP67580 (10^-7 M), a selective neurokinin-1 (NK1) receptor antagonist. Two additional concentrations of RP67580, 10^-6 M and 10^-8 M, were used in WT hearts. An additional drug control of RP67580 was added as that of the CAPZ control group.” left out

- effect on cardiac function in WT hearts without I/R [4]: no effect on cardiac function
- effect on PC-induced cardiac protection (LVEDP, LVDP, CF, +dP/dt, −dP/dt) in WT hearts ([4]; CAPZ 10^−7 M, CGRP8-37 10^−6 M, RP67580 10^−7 M): abolished PC induced protection
Compound: Oc1cc2c(cc1O)CN(C(=S)NCCc1ccc(Cl)cc1)CCC2 [CAPZ, N-[2-(4-Chlorophenyl)ethyl]-1,3,4,5-tetrahydro-7,8-dihydroxy-2H-2-benzazepine-2-carbothioamide]
- effect of antagonist on NADA-induced depressor effect ([1]; NADA 4 mg/kg): abolished
- prolonged depressor effect of NADA (decrease in MAP) after antagonist ([1]; HS diet): 7±2 mmHg
- prolonged depressor effect of NADA (decrease in MAP) after antagonist ([1]; NS diet): 6±2 mmHg
- effect on NADA-induced CGRP release [2]: blocked
- effect on MethA-induced CGRP release [3]: blocked
- effect on these parameters in TRPV1−/− hearts [5]: no effect
